# Source: patent US8309556B2, “Use of compounds derived from pyrimidinetrione as acetyl cholinesterase inhibitors, compositions containing said derivatives, and the uses thereof” (priority 2005, dated 2012)
# How the values were obtained:
# [1] = test system: larvae of mosquitoes Culex pipiens resistant to propoxur; test: Insecticidal activity: larval mortality, propoxur-resistant larvae; format: in vivo; conditions: for LC50: Culex pipiens, stage-4 larvae, mortality after 24 hours, log-Probit, read-out: LD50, Resistant larvae; for Sensitive/resistant ratio: LD50 larval mortality, sensitive relative to resistant
# Protocol: (§1) The insecticidal activity of the compounds according to the invention denoted in table IV below is tested on larvae of mosquitoes Culex pipiens sensitive or resistant to the action of propoxur.
# (§2) The larvae resistant or sensitive to propoxur are incubated in 24-well plates, at the rate of 15 stage-4 larvae per well, in 1 ml of tap water comprising different concentrations of compounds ranging from 0.31 to 50 μg/ml.
# (§3) Larval mortality is measured after incubating for 24 hours. […] Cahiers ORSTOM, série Entomologie médicale et Parasitologie, 23(2), 117-121; Raymond, M., Prato, G. and Ratsira, D. (1993). PROBIT, CNRS-UMII, Licence L93019. Avenix, 34680 St. Georges d'Orques, France.), the homogeneity of the dose/response being tested. The effectiveness of the different compounds with regard to the resistant larvae, relative to the sensitive larvae, is estimated by the sensitive/resistant ratio.
# [2] = test system: larvae of mosquitoes Culex pipiens sensitive to propoxur; test: Insecticidal activity: larval mortality, propoxur-sensitive larvae; format: in vivo; conditions: stage-4 larvae, mortality after 24 hours, log-Probit, read-out: LD50, Sensitive larvae
# Protocol: as §1, §2, §3
# [3] = test system: AChE1 activity of extracts of Culex pipiens larvae resistant to propoxur (G119S-mutated AChE); test: biochemical; conditions: IC50 on larval extracts, sensitive relative to resistant
# Protocol: (§4) The inhibitory properties of the compounds of the preceding table I are tested with regard to the AChE activity by either using a normal or G119S-mutated recombinant AChE or using extracts of larvae of mosquitoes which are sensitive (carrying normal AChE) or resistant (carrying G119S-mutated AChE) to organophosphorus compounds and carbamates.
# (§5) The AChE activity is measured using the method described by Bourguet et al., Pest Biochem. Physiol., 1996, 55, 122-128, and which refers to the spectroscopic method described by Ellman G. L. et al. (Biochem. Pharmacol., 1961, 7, 88-95) using acetylthiocholine as substrate.
# (§6) Larvae of Culex pipiens mosquitoes which are sensitive or resistant to propoxur are milled in 400 μl of 0.25M phosphate buffer comprising 1% Triton X100. The homogenates are centrifuged at 10 000 rpm for 3 minutes.
# (§7) The effectiveness of the various compounds with regard to the resistant larvae, relative to the sensitive larvae, is estimated by the sensitive/resistant ratio.
# [4] = target: T1, AChE1 activity of extracts of Culex pipiens larvae resistant to propoxur (G119S-mutated AChE) (Culex pipiens, UniProt Q86GC8, G247S); test: biochemical
# T1 construct: from tissue; host or cells: whole larvae of propoxur-resistant Culex pipiens, Triton X100 homogenate supernatant
# Protocol: as §4, §5, §6, §7
# [5] = test system: G119S-mutated recombinant Culex pipiens AChE1; test: biochemical; conditions: IC50 normal AChE1 relative to mutated AChE1, recombinant
# Protocol: as §4, §5
# (§8) The inhibitory properties of the compounds according to the invention with regard to the activity of a G119S-mutated or normal recombinant Culex pipiens AChE1 are tested according to protocol described by Weill et al., Nature, 2003, 423, 136-137.
# (§9) Each compound according to the invention is tested at different concentrations on lysates of Drosophile S2 cells transfected with an empty expression vector or an expression vector expressing normal or mutated AChE1. After expression, the cells are centrifuged for 15 minutes at 14 000 rpm and are subsequently lysed in a 0.25 M phosphate buffer comprising 1% Triton X100.
# (§10) 100 μl of supernatant originating from the centrifuging of the cell lysates at 10 000 rpm for 3 minutes are incubated for 15 minutes with 10 μl of each compound according to the invention at various concentrations.
# (§11) The effectiveness of the various compounds with regard to the mutated AChE activity, relative to that of the normal AChE, is estimated by the sensitive/insensitive ratio.
# [6] = target: T2, G119S-mutated recombinant Culex pipiens AChE1 (Culex pipiens, UniProt Q86GC8, G247S); test: biochemical
# T2 construct: made in house; host or cells: Drosophila S2 cells (crude lysate supernatant)
# Protocol: as §4, §5, §8, §9, §10, §11
# [7] = target: T3, AChE1 activity of extracts of Culex pipiens larvae sensitive to propoxur (normal AChE) (Culex pipiens, UniProt Q86GC8); test: Inhibition of AChE1 activity in extracts of propoxur-sensitive mosquito larvae; format: biochemical; conditions: extracts of propoxur-sensitive larvae, 15 minutes incubation; read-out: IC50, Sensitive larvae
# T3 construct: from tissue; host or cells: whole larvae of propoxur-sensitive Culex pipiens, Triton X100 homogenate supernatant
# Protocol: as §4, §5, §6, §7
# [8] = target: T4, normal recombinant Culex pipiens AChE1 (Culex pipiens, UniProt Q86GC8); test: Inhibition of normal recombinant AChE1 (lysates of transfected Drosophile S2 cells, Ellman method); format: biochemical
# T4 construct: made in house; host or cells: Drosophila S2 cells (crude lysate supernatant)
# Protocol: as §4, §5, §8, §9, §10, §11
Compound,LC50 [1] [µM],Sensitive/resistant ratio [1],LC50 [2] [µM],Sensitive/resistant ratio [3],IC50 [4] [µM],Sensitive/insensitive ratio [5],IC50 [6] [µM],IC50 [7] [µM],IC50 [8] [µM]
"Cc1ccc(C=C2C(=O)NC(=O)N(c3ccc(Cl)cc3)C2=O)o1 [(6), 1-(4-chlorophenyl)-5-[(5-methyl-2-furyl)methylene]-2,4,6(1H,3H,5H)-pyrimidinetrione]",192,4.0,762,12.0,27,1.63,43,330,70
"COc1ccc(N2C(=O)NC(=O)C(=Cc3ccc(C)o3)C2=O)cc1 [(5), 1-(4-methoxyphenyl)-5-[(5-methyl-2-furyl)methylene]-2,4,6(1H,3H,5H)-pyrimidinetrione]",206,1.5,300,7.3,81,1.36,22,592,30
"Cc1ccc(C=C2C(=O)N(C)C(=O)N(C)C2=O)o1 [(4), 1,3-dimethyl-5-[(5-methyl-2-furyl)methylene]-2,4,6(1H,3H,5H)-pyrimidinetrione]",200,2.9,576,9.8,7.5,2.40,31,74.3,73
